# Measurements from patent US20080160163A1, “Reduction of Digestibility of Phosphorus” (BAYER HEALTHCARE AG, priority 2005, published 2008).
# Key:
# [1] = tested on: adult healthy female beagle dogs; settings: dogs, 1.75, 5.0 and 17.5 g per kg of feed
# From the text: A total of twelve adult healthy female beagle dogs were individually fed with a commercially available regular canned feed (‘Eukanuba Adult with much lamb’, IAMs Pet Food Ltd., containing 0.25% of phosphorus corresponding to 1.09% phosphorus in the dry matter). At weekly intervals, their diet was supplemented with increasing amounts of lanthanum carbonate octahydrate, thus resulting in final concentrations of the feed additive of 0, 1.75, 5.0, and 17.5 g of lanthanum carbonate octahydrate per kg of feed.
# (§1) During the study the amount of food consumed was recorded daily and the animals were observed daily for the possible occurrence of adverse events. In the faeces collected over a two-day sampling period at the end of the study, the phosphorus levels were measured. On comparing the dietary intake of phosphorus with the excretion of phosphorus in the faeces, the apparent phosphorus digestibility was calculated according to the following equation: […]
# [2] = tested on: adult healthy domestic cats; settings: 0.3 and 3.0 g per kg of feed for two weeks
# From the text: Within the context of a larger study, 24 adult healthy domestic cats of both genders, individually fed with a commercially available regular canned diet (‘Petley's Gourmet Supreme Beef Casserole’, PROMEAL (PTY) Ltd., containing 0.19% phosphorus corresponding to 1.13% phosphorus in the dry matter), were randomised to three equal groups of eight animals which were fed for two weeks with dose levels corresponding to 0, 0.3, and 3.0 grams of lanthanum carbonate octahydrate per kg of feed in their daily feed ration.
# as §1, with “three-day” for “two-day”
# [3] = tested on: adult healthy domestic cats
# From the text: Fifteen adult healthy domestic cats of both genders were individually fed with commercially available regular canned diet (Premium Pate rich in lamb, IAMS Pet Food GmbH & Co containing 0.26% of phosphorus corresponding to 1.13% phosphorus in the dry matter). The aim of the study was to assess the palatability and safety of lanthanum carbonate octahydrate especially in high doses. Therefore 10 cats were fed lanthanum carbonate octahydrate in their daily feed ration at increasing doses. The study began with a dose level of about 12-15 g per kg of feed (dry matter). The dose was doubled every two weeks up to a dose level of about 96-120 g per kg of feed (dry matter). Five cats were given the feed without any lanthanum carbonate octahydrate and served as controls.
# Palatability was assessed daily by observing the general acceptance of the feed. Tolerability and safety were assessed by measuring the blood serum phosphate levels and body weight at regular intervals as well as by daily observations concerning the health status and the possible occurrence of adverse events.
# [4] = up to a dose level of 1 g/kg of body weight (=about 108 mg per kg of dry feed)
smiles,measurement,setting,value
O.O.O.O.O.O.O.O.O=C([O-])[O-].O=C([O-])[O-].O=C([O-])[O-].[La+3].[La+3] [lanthanum carbonate octahydrate],tolerance in the study animals,[1],no negative effect
same,apparent phosphorus digestibility,[1]; FIG. 2.2,corresponding decrease
same,phosphorus content in the faeces,"[1]; increased weekly, faeces collected over two days, FIG. 2.1",dose-dependently increased
same,tolerance in the study animals,[2],no negative effect
same,apparent phosphorus digestibility,[2]; FIG. 1.2,corresponding decrease
same,phosphorus content in the faeces,"[2]; faeces collected over three days, FIG. 1.1",dose-dependently increased
same,tolerance of the study animals,[3]; even in extremely high doses,no negative effect
same,palatability or acceptance of the feed or its safety compared to the control cats,[3]; increasing doses vs control cats,no difference
same,adverse events,[3]; [4],no limiting adverse events
same,body weight,[3]; [4],no changes
same,serum phosphate levels,[3]; [4],no changes
